Measurements taken from paper PMC9310519, “Small-molecule inhibitor of intestinal anion exchanger SLC26A3 for treatment of hyperoxaluria and nephrolithiasis” (JCI Insight, 2022).

Tests used:
[1] = target: SLC26A3 (human) (Homo sapiens, UniProt P40879); assay: YFP halide-sensor anion transport assay in HEK293 cells expressing human SLC26A3; format: cell-based
[2] = target: SLC26A3 (murine) (Mus musculus, UniProt Q9WVC8); assay: YFP oxalate/chloride exchange assay in FRT cells stably expressing murine SLC26A3; Transwell oxalate transport; format: cell-based
[3] = target: T1, 5-HT1A Human Serotonin (Homo sapiens, UniProt P08908); assay: biochemical; set-up: Eurofins SafetyScreen44 radioligand binding displacement, percent inhibition, duplicate; details: radioligand binding
T1 construct: gene HTR1A
Method: (§1) Possible off-target effects of DRAinh-A270 were investigated by panel screening (Eurofins SafetyScreen44). […] Testing for CYP450 and hERG inhibition also supported DRAinh-A270 safety (Supplemental Tables 2 and 3, respectively). Finally, metabolic stability of DRAinh-A270 was measured in mouse, rat, and human microsomes.

[4] = target: T2, 5-HT1B Human Serotonin (Homo sapiens, UniProt P28222); assay: biochemical; set-up: Eurofins SafetyScreen44 radioligand binding displacement, percent inhibition, duplicate; details: radioligand binding
T2 construct: gene HTR1B
Method: as §1

[5] = target: T3, 5-HT2A Human Serotonin (Homo sapiens, UniProt P28223); assay: biochemical; set-up: Eurofins SafetyScreen44 radioligand binding displacement, percent inhibition, duplicate; details: radioligand binding
T3 construct: gene HTR2A
Method: as §1

[6] = target: T4, 5-HT2B Human Serotonin (Homo sapiens, UniProt P41595); assay: biochemical; set-up: Eurofins SafetyScreen44 radioligand binding displacement, percent inhibition, duplicate; details: radioligand binding
T4 construct: gene HTR2B
Method: as §1

[7] = target: T5, 5-HT3 Human Serotonin (Homo sapiens, UniProt P46098); assay: biochemical; set-up: Eurofins SafetyScreen44 radioligand binding displacement, percent inhibition, duplicate; details: radioligand binding
T5 construct: gene HTR3A
Method: as §1

[8] = target: T6, A2A Human Adenosine (Homo sapiens, UniProt P29274); assay: biochemical; set-up: Eurofins SafetyScreen44 radioligand binding displacement, percent inhibition, duplicate; details: radioligand binding
T6 construct: gene ADORA2A
Method: as §1

[9] = target: AR Human Androgen (Homo sapiens, UniProt P10275); assay: biochemical; set-up: Eurofins SafetyScreen44 radioligand binding displacement, percent inhibition, duplicate; details: radioligand binding
Method: as §1

[10] = target: T7, CB1 Human Cannabinoid (Homo sapiens, UniProt P21554); assay: biochemical; set-up: Eurofins SafetyScreen44 radioligand binding displacement, percent inhibition, duplicate; details: radioligand binding
T7 construct: gene CNR1
Method: as §1

[11] = target: T8, CB2 Human Cannabinoid (Homo sapiens, UniProt P34972); assay: biochemical; set-up: Eurofins SafetyScreen44 radioligand binding displacement, percent inhibition, duplicate; details: radioligand binding
T8 construct: gene CNR2
Method: as §1

[12] = target: T9, CCK1 (CCKA) Human Cholecystokinin (Homo sapiens, UniProt P32238); assay: biochemical; set-up: Eurofins SafetyScreen44 radioligand binding displacement, percent inhibition, duplicate; details: radioligand binding
T9 construct: gene CCKAR
Method: as §1

[13] = target: T10, D1 Human Dopamine (Homo sapiens, UniProt P21728); assay: biochemical; set-up: Eurofins SafetyScreen44 radioligand binding displacement, percent inhibition, duplicate; details: radioligand binding
T10 construct: gene DRD1
Method: as §1

[14] = target: T11, D2S Human Dopamine (Homo sapiens, UniProt P14416); assay: biochemical; set-up: Eurofins SafetyScreen44 radioligand binding displacement, percent inhibition, duplicate; details: radioligand binding
T11 construct: gene DRD2; D2S short isoform
Method: as §1

[15] = target: T12, DAT Human Dopamine Transporter (Homo sapiens, UniProt Q01959); assay: biochemical; set-up: Eurofins SafetyScreen44 radioligand binding displacement, percent inhibition, duplicate; details: radioligand binding
T12 construct: gene SLC6A3
Method: as §1

[16] = target: T13, ETA Human Endothelin (Homo sapiens, UniProt P25101); assay: biochemical; set-up: Eurofins SafetyScreen44 radioligand binding displacement, percent inhibition, duplicate; details: radioligand binding
T13 construct: gene EDNRA
Method: as §1

[17] = target: T14, GR Human Glucocorticoid (Homo sapiens, UniProt P04150); assay: biochemical; set-up: Eurofins SafetyScreen44 radioligand binding displacement, percent inhibition, duplicate; details: radioligand binding
T14 construct: gene NR3C1
Method: as §1

[18] = target: T15, H1 Human Histamine (Homo sapiens, UniProt P35367); assay: biochemical; set-up: Eurofins SafetyScreen44 radioligand binding displacement, percent inhibition, duplicate; details: radioligand binding
T15 construct: gene HRH1
Method: as §1

[19] = target: T16, H2 Human Histamine (Homo sapiens, UniProt P25021); assay: biochemical; set-up: Eurofins SafetyScreen44 radioligand binding displacement, percent inhibition, duplicate; details: radioligand binding
T16 construct: gene HRH2
Method: as §1

[20] = target: T17, M1 Human Acetylcholine (Muscarinic) (Homo sapiens, UniProt P11229); assay: biochemical; set-up: Eurofins SafetyScreen44 radioligand binding displacement, percent inhibition, duplicate; details: radioligand binding
T17 construct: gene CHRM1
Method: as §1

[21] = target: T18, M2 Human Acetylcholine (Muscarinic) (Homo sapiens, UniProt P08172); assay: biochemical; set-up: Eurofins SafetyScreen44 radioligand binding displacement, percent inhibition, duplicate; details: radioligand binding
T18 construct: gene CHRM2
Method: as §1

[22] = target: T19, M3 Human Acetylcholine (Muscarinic) (Homo sapiens, UniProt P20309); assay: biochemical; set-up: Eurofins SafetyScreen44 radioligand binding displacement, percent inhibition, duplicate; details: radioligand binding
T19 construct: gene CHRM3
Method: as §1

[23] = target: T20, NET Human Norepinephrine Transporter (Homo sapiens, UniProt P23975); assay: biochemical; set-up: Eurofins SafetyScreen44 radioligand binding displacement, percent inhibition, duplicate; details: radioligand binding
T20 construct: gene SLC6A2
Method: as §1

[24] = target: T21, V1A Human Vasopressin (Homo sapiens, UniProt P37288); assay: biochemical; set-up: Eurofins SafetyScreen44 radioligand binding displacement, percent inhibition, duplicate; details: radioligand binding
T21 construct: gene AVPR1A
Method: as §1

[25] = target: T22, alpha1A Human Adrenoceptor (Homo sapiens, UniProt P35348); assay: biochemical; set-up: Eurofins SafetyScreen44 radioligand binding displacement, percent inhibition, duplicate; details: radioligand binding
T22 construct: gene ADRA1A
Method: as §1

[26] = target: T23, alpha2A Human Adrenoceptor (Homo sapiens, UniProt P08913); assay: biochemical; set-up: Eurofins SafetyScreen44 radioligand binding displacement, percent inhibition, duplicate; details: radioligand binding
T23 construct: gene ADRA2A
Method: as §1

[27] = target: T24, beta1 Human Adrenoceptor (Homo sapiens, UniProt P08588); assay: biochemical; set-up: Eurofins SafetyScreen44 radioligand binding displacement, percent inhibition, duplicate; details: radioligand binding
T24 construct: gene ADRB1
Method: as §1

[28] = target: T25, beta2 Human Adrenoceptor (Homo sapiens, UniProt P07550); assay: biochemical; set-up: Eurofins SafetyScreen44 radioligand binding displacement, percent inhibition, duplicate; details: radioligand binding
T25 construct: gene ADRB2
Method: as §1

[29] = target: T26, delta (DOP) Human Opioid (Homo sapiens, UniProt P41143); assay: biochemical; set-up: Eurofins SafetyScreen44 radioligand binding displacement, percent inhibition, duplicate; details: radioligand binding
T26 construct: gene OPRD1
Method: as §1

[30] = target: T27, hERG (Homo sapiens, UniProt Q12809); assay: in vitro; set-up: Eurofins SafetyScreen44 radioligand binding displacement, percent inhibition, duplicate; details: radioligand binding
T27 construct: gene KCNH2
Method: as §1

[31] = target: T28, kappa (KOP) Human Opioid (Homo sapiens, UniProt P41145); assay: biochemical; set-up: Eurofins SafetyScreen44 radioligand binding displacement, percent inhibition, duplicate; details: radioligand binding
T28 construct: gene OPRK1
Method: as §1

[32] = target: T29, mu (MOP) Human Opioid (Homo sapiens, UniProt P35372); assay: biochemical; set-up: Eurofins SafetyScreen44 radioligand binding displacement, percent inhibition, duplicate; details: radioligand binding
T29 construct: gene OPRM1
Method: as §1

[33] = target: T30, nAChR (alpha4/beta2) Human Ion Channel (Homo sapiens, UniProt P17787+P43681); assay: biochemical; set-up: Eurofins SafetyScreen44 radioligand binding displacement, percent inhibition, duplicate; details: radioligand binding
T30 construct: gene CHRNB2
Method: as §1

[34] = target: T31, Acetylcholinesterase (Homo sapiens, UniProt P22303); assay: biochemical; set-up: Eurofins SafetyScreen44 enzymatic assay, percent inhibition, duplicate; details: enzymatic assay
T31 construct: gene ACHE
Method: as §1

[35] = target: T32, COX1 Human Cyclooxygenase (Homo sapiens, UniProt P23219); assay: biochemical; set-up: Eurofins SafetyScreen44 enzymatic assay, percent inhibition, duplicate; details: enzymatic assay
T32 construct: gene PTGS1
Method: as §1

[36] = target: T33, COX2 Human Cyclooxygenase (Homo sapiens, UniProt P35354); assay: biochemical; set-up: Eurofins SafetyScreen44 enzymatic assay, percent inhibition, duplicate; details: enzymatic assay
T33 construct: gene PTGS2
Method: as §1

[37] = target: T34, Monoamine Oxidase A (MAO-A) (Homo sapiens, UniProt P21397); assay: biochemical; set-up: Eurofins SafetyScreen44 enzymatic assay, percent inhibition, duplicate; details: enzymatic assay
T34 construct: gene MAOA
Method: as §1

[38] = target: PDE3A Human Phosphodiesterase (Homo sapiens, UniProt Q14432); assay: biochemical; set-up: Eurofins SafetyScreen44 enzymatic assay, percent inhibition, duplicate; details: enzymatic assay
Method: as §1

[39] = target: T35, PDE4D2 Human Phosphodiesterase (Homo sapiens, UniProt Q08499); assay: biochemical; set-up: Eurofins SafetyScreen44 enzymatic assay, percent inhibition, duplicate; details: enzymatic assay
T35 construct: gene PDE4D; PDE4D2 isoform
Method: as §1

T16 sequence (P25021 whole entry): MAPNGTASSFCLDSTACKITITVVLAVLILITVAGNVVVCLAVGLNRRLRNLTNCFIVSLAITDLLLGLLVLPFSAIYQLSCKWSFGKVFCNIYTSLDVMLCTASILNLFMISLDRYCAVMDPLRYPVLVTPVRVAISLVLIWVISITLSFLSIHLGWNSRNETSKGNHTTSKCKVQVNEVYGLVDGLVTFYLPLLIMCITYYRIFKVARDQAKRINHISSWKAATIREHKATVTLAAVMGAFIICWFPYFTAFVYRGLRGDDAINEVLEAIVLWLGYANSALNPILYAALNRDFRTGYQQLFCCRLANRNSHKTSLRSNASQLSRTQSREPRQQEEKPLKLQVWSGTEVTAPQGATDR
T17 sequence (P11229 whole entry): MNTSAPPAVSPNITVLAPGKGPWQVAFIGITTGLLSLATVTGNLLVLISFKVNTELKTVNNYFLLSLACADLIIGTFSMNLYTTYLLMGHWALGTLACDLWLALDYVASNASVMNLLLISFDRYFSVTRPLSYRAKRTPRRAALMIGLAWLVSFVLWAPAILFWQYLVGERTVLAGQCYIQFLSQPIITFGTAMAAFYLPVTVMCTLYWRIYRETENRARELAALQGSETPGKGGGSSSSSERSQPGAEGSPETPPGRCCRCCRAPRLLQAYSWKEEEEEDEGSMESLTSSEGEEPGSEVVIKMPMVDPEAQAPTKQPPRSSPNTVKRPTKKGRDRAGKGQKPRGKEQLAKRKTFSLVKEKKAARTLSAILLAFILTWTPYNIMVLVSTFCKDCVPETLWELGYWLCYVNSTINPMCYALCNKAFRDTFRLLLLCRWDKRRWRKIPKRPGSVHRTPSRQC
T3 sequence (P28223 whole entry): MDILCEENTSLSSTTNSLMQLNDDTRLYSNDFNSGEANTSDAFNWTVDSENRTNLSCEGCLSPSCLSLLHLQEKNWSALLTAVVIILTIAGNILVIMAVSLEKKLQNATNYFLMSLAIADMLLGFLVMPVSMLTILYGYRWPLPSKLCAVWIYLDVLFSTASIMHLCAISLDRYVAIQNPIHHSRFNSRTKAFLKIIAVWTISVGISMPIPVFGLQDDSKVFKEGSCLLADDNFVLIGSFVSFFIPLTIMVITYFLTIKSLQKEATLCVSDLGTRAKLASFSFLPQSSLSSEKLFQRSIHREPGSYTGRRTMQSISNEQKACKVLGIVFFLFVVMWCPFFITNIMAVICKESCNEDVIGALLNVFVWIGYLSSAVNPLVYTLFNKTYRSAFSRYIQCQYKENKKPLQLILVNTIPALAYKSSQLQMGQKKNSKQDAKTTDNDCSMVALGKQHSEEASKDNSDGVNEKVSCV
T8 sequence (P34972 whole entry): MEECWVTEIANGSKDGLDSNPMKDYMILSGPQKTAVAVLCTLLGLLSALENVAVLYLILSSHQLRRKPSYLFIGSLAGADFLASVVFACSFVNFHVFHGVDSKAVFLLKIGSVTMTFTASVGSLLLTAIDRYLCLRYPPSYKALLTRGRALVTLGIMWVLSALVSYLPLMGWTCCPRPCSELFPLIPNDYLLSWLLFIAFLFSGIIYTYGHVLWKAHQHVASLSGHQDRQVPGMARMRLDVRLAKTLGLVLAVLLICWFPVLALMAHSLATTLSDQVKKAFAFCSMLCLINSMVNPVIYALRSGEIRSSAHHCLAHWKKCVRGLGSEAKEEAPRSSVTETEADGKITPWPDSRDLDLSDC
T27 sequence (Q12809 whole entry): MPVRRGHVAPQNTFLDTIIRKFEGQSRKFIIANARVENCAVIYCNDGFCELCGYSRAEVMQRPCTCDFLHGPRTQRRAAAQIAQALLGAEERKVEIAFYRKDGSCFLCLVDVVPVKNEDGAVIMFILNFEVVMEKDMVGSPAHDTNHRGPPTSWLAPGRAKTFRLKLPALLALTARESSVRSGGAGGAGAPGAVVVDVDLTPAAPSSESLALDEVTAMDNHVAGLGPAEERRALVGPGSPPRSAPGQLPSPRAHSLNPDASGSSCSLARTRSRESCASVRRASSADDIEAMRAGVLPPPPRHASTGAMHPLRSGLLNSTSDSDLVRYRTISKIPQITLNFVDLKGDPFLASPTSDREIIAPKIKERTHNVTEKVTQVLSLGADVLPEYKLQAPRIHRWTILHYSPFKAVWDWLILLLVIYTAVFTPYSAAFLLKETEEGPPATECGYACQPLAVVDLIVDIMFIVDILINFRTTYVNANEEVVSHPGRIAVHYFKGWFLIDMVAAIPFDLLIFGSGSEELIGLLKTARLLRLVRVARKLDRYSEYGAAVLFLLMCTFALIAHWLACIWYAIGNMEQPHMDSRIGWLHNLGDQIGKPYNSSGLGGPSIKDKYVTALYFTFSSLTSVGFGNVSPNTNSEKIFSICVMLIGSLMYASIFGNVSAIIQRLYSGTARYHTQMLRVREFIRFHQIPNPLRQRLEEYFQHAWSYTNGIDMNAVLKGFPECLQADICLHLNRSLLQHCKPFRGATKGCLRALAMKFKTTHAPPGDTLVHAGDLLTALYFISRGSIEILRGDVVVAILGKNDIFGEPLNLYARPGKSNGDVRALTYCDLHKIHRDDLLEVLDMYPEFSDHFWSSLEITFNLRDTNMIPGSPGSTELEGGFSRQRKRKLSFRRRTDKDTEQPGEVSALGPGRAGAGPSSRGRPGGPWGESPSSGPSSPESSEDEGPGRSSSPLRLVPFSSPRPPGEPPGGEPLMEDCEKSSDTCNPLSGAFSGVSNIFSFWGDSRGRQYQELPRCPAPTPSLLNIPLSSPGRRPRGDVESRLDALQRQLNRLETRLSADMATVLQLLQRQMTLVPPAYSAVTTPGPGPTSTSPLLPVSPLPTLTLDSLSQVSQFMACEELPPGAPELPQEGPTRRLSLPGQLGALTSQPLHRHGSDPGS
T18 sequence (P08172 whole entry): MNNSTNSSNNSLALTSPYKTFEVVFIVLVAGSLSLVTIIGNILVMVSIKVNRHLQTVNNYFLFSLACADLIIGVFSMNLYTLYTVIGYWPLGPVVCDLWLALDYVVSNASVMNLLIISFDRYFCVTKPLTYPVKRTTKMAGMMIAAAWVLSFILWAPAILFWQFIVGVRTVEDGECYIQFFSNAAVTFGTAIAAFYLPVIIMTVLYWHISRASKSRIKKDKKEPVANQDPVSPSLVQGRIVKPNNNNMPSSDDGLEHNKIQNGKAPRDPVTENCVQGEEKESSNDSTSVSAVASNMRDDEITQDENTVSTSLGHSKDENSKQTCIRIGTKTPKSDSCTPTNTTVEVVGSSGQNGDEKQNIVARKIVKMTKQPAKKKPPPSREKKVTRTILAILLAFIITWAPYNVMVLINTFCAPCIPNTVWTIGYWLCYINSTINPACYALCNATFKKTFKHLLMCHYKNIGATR
T31 sequence (P22303 whole entry): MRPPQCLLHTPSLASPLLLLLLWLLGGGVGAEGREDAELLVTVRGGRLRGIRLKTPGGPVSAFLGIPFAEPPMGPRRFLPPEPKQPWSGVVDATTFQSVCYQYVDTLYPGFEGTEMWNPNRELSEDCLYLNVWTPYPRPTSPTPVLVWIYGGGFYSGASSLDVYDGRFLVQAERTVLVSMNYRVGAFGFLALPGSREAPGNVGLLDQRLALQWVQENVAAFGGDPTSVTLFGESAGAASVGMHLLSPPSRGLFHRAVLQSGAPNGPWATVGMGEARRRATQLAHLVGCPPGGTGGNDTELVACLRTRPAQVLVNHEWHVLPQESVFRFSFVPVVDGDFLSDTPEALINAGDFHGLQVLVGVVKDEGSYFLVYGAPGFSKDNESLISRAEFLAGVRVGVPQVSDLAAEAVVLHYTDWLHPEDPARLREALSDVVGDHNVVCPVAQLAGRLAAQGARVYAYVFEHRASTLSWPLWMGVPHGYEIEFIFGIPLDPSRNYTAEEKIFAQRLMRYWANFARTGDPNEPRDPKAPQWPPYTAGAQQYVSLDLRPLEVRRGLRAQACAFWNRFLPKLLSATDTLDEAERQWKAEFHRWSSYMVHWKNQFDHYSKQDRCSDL
T25 sequence (P07550 whole entry): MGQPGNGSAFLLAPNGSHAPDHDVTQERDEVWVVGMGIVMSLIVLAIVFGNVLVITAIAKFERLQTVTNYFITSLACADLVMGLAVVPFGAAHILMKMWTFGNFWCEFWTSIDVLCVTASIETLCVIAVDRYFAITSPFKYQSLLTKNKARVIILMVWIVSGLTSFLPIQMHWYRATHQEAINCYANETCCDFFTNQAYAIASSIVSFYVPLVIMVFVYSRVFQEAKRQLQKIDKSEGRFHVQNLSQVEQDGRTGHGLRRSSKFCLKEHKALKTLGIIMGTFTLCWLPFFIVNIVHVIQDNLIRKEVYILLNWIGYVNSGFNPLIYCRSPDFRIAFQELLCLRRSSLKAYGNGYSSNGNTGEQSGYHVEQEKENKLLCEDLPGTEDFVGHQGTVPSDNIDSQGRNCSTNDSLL
T22 sequence (P35348 whole entry): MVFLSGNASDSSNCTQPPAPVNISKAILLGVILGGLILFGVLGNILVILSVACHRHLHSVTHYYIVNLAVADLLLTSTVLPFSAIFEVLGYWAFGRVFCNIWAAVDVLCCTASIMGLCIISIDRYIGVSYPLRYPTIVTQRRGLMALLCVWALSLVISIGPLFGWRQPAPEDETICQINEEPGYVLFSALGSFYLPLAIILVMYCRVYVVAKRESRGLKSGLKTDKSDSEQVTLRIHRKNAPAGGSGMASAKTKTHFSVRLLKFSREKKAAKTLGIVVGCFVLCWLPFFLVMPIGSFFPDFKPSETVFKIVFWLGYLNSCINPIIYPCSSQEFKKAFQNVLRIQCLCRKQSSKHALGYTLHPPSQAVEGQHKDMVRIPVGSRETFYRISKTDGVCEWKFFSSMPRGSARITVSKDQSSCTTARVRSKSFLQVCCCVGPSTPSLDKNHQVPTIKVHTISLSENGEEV

Cc1c(CC(=O)O)c(=O)oc2c(C)c(OCc3cccc(I)c3)ccc12 [4az (in ref. 19), DRAinh-A270]
IC50 [1]: 20 nM | IC50 [2]: ~60 nM | inhibition at 10 µM [3]: 0% | inhibition at 10 µM [4]: -1% | inhibition at 10 µM [5]: 17% | inhibition at 10 µM [6]: 64% | inhibition at 10 µM [7]: -6% | inhibition at 10 µM [8]: 46% | inhibition at 10 µM [9]: 13% | inhibition at 10 µM [10]: -3% | inhibition at 10 µM [11]: -1% | inhibition at 10 µM [12]: -5% | inhibition at 10 µM [13]: 13% | inhibition at 10 µM [14]: 2% | inhibition at 10 µM [15]: -2% | inhibition at 10 µM [16]: 13% | inhibition at 10 µM [17]: -7% | inhibition at 10 µM [18]: 27% | inhibition at 10 µM [19]: -2% | inhibition at 10 µM [20]: 9% | inhibition at 10 µM [21]: -3% | inhibition at 10 µM [22]: 8% | inhibition at 10 µM [23]: 29% | inhibition at 10 µM [24]: -1% | inhibition at 10 µM [25]: 5% | inhibition at 10 µM [26]: 47% | inhibition at 10 µM [27]: 14% | inhibition at 10 µM [28]: 3% | inhibition at 10 µM [29]: -3% | inhibition at 10 µM [30]: 19% | inhibition at 10 µM [31]: 7% | inhibition at 10 µM [32]: -5% | inhibition at 10 µM [33]: -3% | inhibition at 10 µM [34]: 10% | inhibition at 10 µM [35]: -1% | inhibition at 10 µM [36]: 15% | inhibition at 10 µM [37]: 73% | inhibition at 10 µM [38]: 4% | inhibition at 10 µM [39]: -2%
